In patent US20220087979A1, “TREATMENT OF MALIGNANCIES” (Board of Trustees of Michigan State University, priority 2017, published 2022):

What was measured:
LC3B-II = assay: LC3B immunoblot in U87-MG cells; format: cell-based; details: for amount of LC3B-II: TCH-165 10 μM 16 h or BafA1 100 nM 4 h, alone (FIG. 2A)
Experimental: (§1) U87-MG cells at 70% confluency were treated with test compounds at the reported concentration and time. Cells were washed with warm PBS and trypsinized with 0.25% Trypsin-EDTA. Samples were collected in chilled PBS, pelleted and washed twice with chilled PBS. Cells were then lysed with celLytic buffer supplemented with 1% sigma fast inhibitor cocktail. Total protein was quantified by BCA reagent, and 20 μg resolved on a 12% (LC3B) or 30 μg on a 4-12% (p62, ATG5, beclin1) Tris-glycine SDS-PAGE, and immunoblotted with antigen specific antibody (1:1000), and goat anti-rabbit HRP (1:1000). Blots were developed with ECL western reagent and imaged with x-ray film.
To determine whether TCH-165 affects LC3B-II formation, glioblastoma astrocytoma (U87-MG) cells were treated with TCH-165 and the level of LC3B-II monitored by immunoblot. U87-MG cells were incubated with different concentrations of TCH-165 and immunoblotted with LC3B-specific antibody. U87-MG cells were also treated with a specific amount of TCH-165 (10 μM) and evaluated at 0, 6, 12, and 24 hours. Cell lysates were immunoblotted with LC3B-specific antibody and anti-GAPDH as a loading control.
U87-MG cells were treated with either vehicle (DMSO) or TCH-165 (10 μM) for 16 h, followed by treatment with bafilomycin A1 (100 nM) for 4 h. Conversion of LC3BI to LC3BII was detected by immunoblot with LC3B-specific antibody.

HS BD = assay: Tumor cell growth inhibition, HS BD; format: cell-based; details: Canis lupus familiaris; Canine Histiocytic Sarcoma cell line HS BD
Experimental: (§2) The pIC50 values shown in Table 1, herein, was determined as the negative log of the amount of compound required to inhibit tumor cell growth by 50% (the IC50). […] A pIC50 of 4 indicates an IC50 of 10-4.

HS PJ = assay: Tumor cell growth inhibition, HS PJ; format: cell-based; details: Canis lupus familiaris; Canine Histiocytic Sarcoma cell line HS PJ
Experimental: as §2

HS DH82 = assay: Tumor cell growth inhibition, HS DH82; format: cell-based; details: Canis lupus familiaris; Canine Histiocytic Sarcoma cell line HS DH82
Experimental: as §2

cOS D17 = assay: Tumor cell growth inhibition, cOS D17; format: cell-based; details: Canis lupus familiaris; Canine Osteosarcoma cell line cOS D17
Experimental: as §2

cOS Abrams = assay: Tumor cell growth inhibition, cOS Abrams; format: cell-based; details: Canis lupus familiaris; Canine Osteosarcoma cell line cOS Abrams
Experimental: as §2

cOS Gracie = assay: Tumor cell growth inhibition, cOS Gracie; format: cell-based; details: Canis lupus familiaris; Canine Osteosarcoma cell line cOS Gracie
Experimental: as §2

cOS Ginger = assay: Tumor cell growth inhibition, cOS Ginger; format: cell-based; details: Canis lupus familiaris; Canine Osteosarcoma cell line cOS Ginger
Experimental: as §2

cOS Brandie primary = assay: Tumor cell growth inhibition, cOS Brandie primary; format: cell-based; details: Canis lupus familiaris; Canine Osteosarcoma cell line cOS Brandie primary
Experimental: as §2

cOS Brandie mets = assay: Tumor cell growth inhibition, cOS Brandie mets; format: cell-based; details: Canis lupus familiaris; Canine Osteosarcoma cell line cOS Brandie mets
Experimental: as §2

cOS Blaz = assay: Tumor cell growth inhibition, cOS Blaz; format: cell-based; details: Canis lupus familiaris; Canine Osteosarcoma cell line cOS Blaz
Experimental: as §2

Normal FB1 = assay: Cell growth inhibition, Normal FB1; format: cell-based; details: Canis lupus familiaris; Canine Normal Firbroblasts Normal FB1
Experimental: as §2

Normal FB2 = assay: Cell growth inhibition, Normal FB2; format: cell-based; details: Canis lupus familiaris; Canine Normal Firbroblasts Normal FB2
Experimental: as §2

Fel SCC1 = assay: Tumor cell growth inhibition, Fel SCC1; format: cell-based; details: Felis catus; Feline Squamous Cell Carcinoma cell line Fel SCC1
Experimental: as §2

Fel SCC2 = assay: Tumor cell growth inhibition, Fel SCC2; format: cell-based; details: Felis catus, SCC-2; Feline Squamous Cell Carcinoma cell line Fel SCC2
Experimental: as §2

Fel SCC3 = assay: Tumor cell growth inhibition, Fel SCC3; format: cell-based; details: Felis catus, SCC-3; Feline Squamous Cell Carcinoma cell line Fel SCC3
Experimental: as §2

hOS Saos2 = assay: Tumor cell growth inhibition, hOS Saos2; format: cell-based; details: SAOS-2; Human Osteosarcoma cell line hOS Saos2
Experimental: as §2

hOS U2OS = assay: Tumor cell growth inhibition, hOS U2OS; format: cell-based; details: Human Osteosarcoma cell line hOS U2OS
Experimental: as §2

hOS MG63 = assay: Tumor cell growth inhibition, hOS MG63; format: cell-based; details: MG-63; Human Osteosarcoma cell line hOS MG63
Experimental: as §2

Hela cells = assay: Tumor cell growth inhibition, Hela cells; format: cell-based; details: Human Cervical Adenocarcinoma
Experimental: as §2

U87-MG cells [1] = assay: Cell viability assay (MTS assay); format: cell-based; details: 72 h
Experimental: FIG. 5B graphically illustrates the viability of glioblastoma cells treated with different concentrations of TCH-165 or TCH-023 for 72 h. MTS reagent was added to quantify cell viability and the absorbance measured at 490 nm 2 h later. Absorbance readings are expressed as percentage of vehicle control for three independent experiments and data are graphed as mean±SD.
FIG. 5D is a bar graph showing the viability of glioblastoma cells treated with different concentrations of TCH-165 or temozolomide for 72 h. MTS reagent was then added and absorbance measured at 490 nm 2 h later. Absorbance readings are expressed as percentage of vehicle control for three independent experiments and data are graphed as mean±SD.
U87-MG cells were seeded in a clear 96-well plate at a density of 1.0×10^4 cells per well. Cells were treated with different concentrations of TCH-165 or temozolomide for 72 h. MTS solution (20 μL) was then added and incubated under cell culture conditions for 2 h. Absorbance was read at 490 nm and expressed as a percentage of vehicle control.

MCT C2 = assay: Tumor cell growth inhibition, MCT C2; format: cell-based; details: Canis lupus familiaris; Canine Mastocytoma cell line MCT C2
Experimental: as §2

HEK293 = assay: Cell growth inhibition, HEK293; format: cell-based; details: Human Embryonic Kidney HEK293
Experimental: as §2

U87-MG cells [2] = assay: Cytotoxicity assay (LDH assay); format: cell-based; details: Homo sapiens, U-87 MG, LDH-based assay, 72 h, FIG. 5E-5F
Experimental: U87-MG cells were seeded in a clear 96-well plate at a density of 1.0×10^4 cells per well. Cells were treated with different concentrations of TCH-165 or temozolomide for 72 h. Culture medium was then assayed for lactate dehydrogenase (LDH) activity according to the manufacturer's protocol. Briefly, cells for maximum toxicity were treated with 10 μL of lysis buffer 45 minutes prior to enzyme assay. Culture media (50 μL) were then transferred to new 96 well plate and 50 μL of substrate mix added. The reaction mixtures were incubated at RT protected from light for 30 minutes. Stop solution (50 μL) was then added and absorbance read at 490 nm. Toxicity was expressed as a fraction of sample treated with lysis buffer.

LC3B = assay: Confocal immunofluorescence of LC3B in U87-MG cells; format: cell-based
Experimental: (§3) U87-MG cells were plated in complete medium at 2.5×10^5 cells/well of a four-chamber glass slide overnight. Fresh medium (500 μL) containing the test compound was added and allowed to incubate for the desire time under cell culture conditions. Cells were washed with chilled immunofluorescent (IF) wash buffer (1×PBS, pH 8.0) and fixed with methanol at −20° C. for 10 minutes. Cells were then washed 2× with IF wash buffer and incubated in blocking buffer (1×PBS, 5% normal goat serum, 0.3% Triton X-100 pH 8.0) for 1 h at RT. Blocking buffer was replaced with primary antibody diluted in dilution buffer (1×PBS, 1% BSA, 0.3% Triton X-100 pH 8.0) overnight (1:200) at 40° C. Primary antibody was washed off 3× and incubated in anti-rabbit Alexa Fluor 488 (1:500) and/or anti-mouse Alexa Fluor 594 for 1 h in the dark, at RT. Secondary antibodies were then washed off (3×) and nuclei stained with Hoechst (4 μg/mL) at RT, for 20 minutes. DNA dye was rinsed off and slides mounted in Prolong Gold and allowed to cure overnight at RT, in the dark. Slides were sealed with nail polish, and LC3B, LAMP1 and p62 punctae detected with a 60× Plan Apo oil objective on a Nikon C2+ or Nikon A1 confocal laser microscope.
LC3B polypeptides were stained with LC3B antibody/Alexa Fluor 488 secondary (green) and the cellular nuclei were stained with Hoechst DNA dye (blue).

[3] = test system: lysosome associated membrane protein (LAMP)-1; assay: Confocal immunofluorescence of LAMP1 in U87-MG cells; format: cell-based; details: 10 μM, 24 h, FIG. 1D
Experimental: as §3

p62 [4] = assay: p62 immunoblot in U87-MG cells; format: cell-based; details: concentration (FIG. 2C) and time (10 μM; 0-24 h, FIG. 2D) dependent
Experimental: as §1

p62 [5] = assay: Confocal immunofluorescence of p62 in U87-MG cells; format: cell-based; details: 10 μM, 24 hr, immunofluorescence imaging
Experimental: All statistical analyses were performed on densitometry data (imageJ) of five individual experiments. Data are graphed as mean±SD and were analyzed by One-Way ANOVA with Bonferroni's multiple comparison test or by student t-test for 2 samples (ns=not significant, *p<0.05, *p<0.01, **p<0.001).
U87-MG cells were plated in complete medium at 2.5×10^5 cells/well of a four-chamber glass slide overnight. Fresh medium (500 μL) containing the test compound was added and allowed to incubate for the desire time under cell culture conditions. Cells were washed with chilled immunofluorescent (IF) wash buffer (1×PBS, pH 8.0) and fixed with methanol at −20° C. for 10 minutes. Cells were then washed 2× with IF wash buffer and incubated in blocking buffer (1×PBS, 5% normal goat serum, 0.3% Triton X-100 pH 8.0) for 1 h at RT. Blocking buffer was replaced with primary antibody diluted in dilution buffer (1×PBS, 1% BSA, 0.3% Triton X-100 pH 8.0) overnight (1:200) at 40° C. Primary antibody was washed off 3× and incubated in anti-rabbit Alexa Fluor 488 (1:500) and/or anti-mouse Alexa Fluor 594 for 1 h in the dark, at RT. Secondary antibodies were then washed off (3×) and nuclei stained with Hoechst (4 μg/mL) at RT, for 20 minutes. […] Slides were sealed with nail polish, and LC3B, LAMP1 and p62 punctae detected with a 60× Plan Apo oil objective on a Nikon C2+ or Nikon A1 confocal laser microscope.

autolysosome formation [6] = assay: Tandem RFP-GFP-LC3B autophagy sensor in U87-MG cells; format: cell-based; details: 10 μM, 24 h, FIG. 3A
Experimental: By combining an acid insensitive red fluorescent protein (RFP) with an acid sensitive green fluorescent protein (GFP), the conversion of autophagosomes (with neutral pH) to an autolysosome (with acidic pH) can be visualized by monitoring the specific loss of the GFP fluorescence upon acidification of the autophagosome following lysosomal fusion.
U87-MG cells were transduced with 30 particles per cell of tandem-RFP-GFP-LC3B and cultured for 24 h. Cells were then incubated with either vehicle or TCH-165 (10 μM) for an additional 24 h. Cells were fixed with 4% formaldehyde, counter stained with Hoechts DNA dye, and imaged on a Nikon C2 confocal microscope using standard filter sets for blue dye, GFP and RFP.

autolysosome formation [7] = assay: Co-localization of LC3B with LAMP1 in U87MG cells; format: cell-based; details: 10 μM, 24 h
Experimental: as §3
Co-localization of LC3B with LAMP1 was therefore examined to distinguish inhibition of autolysosome formation from autolysosome de-acidification. […]

[8] = test system: lysosomes of HEK293T cells; assay: Lysosome de-acidification live imaging (LysoSensor yellow/blue dextran, LAMP1-RFP); format: cell-based, Human; details: cells expressing LAMP1-RFP; TCH-165 10 μM, chloroquine 100 μM
Experimental: HEK293T cells cultured on cover glass slides were transduced with 30 particles per cell of LAMP1-RFP and cultured for 24 h. Cells were then incubated with either vehicle, TCH-165 (10 μM) or chloroquine (100 μM) for 12 h. LysoSensor Yellow/Blue dextran, 10,000 MW, Anionic (1 mg/mL) was then added for a further 12 h and cells imaged with an upright 60× Plan Apo oil objective on a Nikon A1 confocal microscope using standard filter sets for RFP, blue and yellow dyes.
Lysosensor yellow/blue dextran is a pH sensitive dye that is […] (neutral pH). Lysosomes were distinguished from other acidic organelles by imaging with a combination of lysosensor yellow/blue dextran and LAMP1-RFP.

beclin-1, ATG5 and ATG12 = assay: Immunoblot of autophagic regulators in U87-MG cells; format: cell-based; details: 24 h, FIG. 4
Experimental: as §1

[9] = dog, in vivo

CO/C1=C\C(C)=C\[C@@H](C)[C@@H](O)[C@@H](C)C/C(C)=C/C=C/[C@H](OC)[C@@H]([C@@H](C)[C@@H](O)[C@H](C)[C@@]2(O)C[C@@H](O)[C@H](C)[C@@H](C(C)C)O2)OC1=O [BafA1, bafilomycin A1, reference compound]
amount of LC3B-II (LC3B-II; U87-MG): significant increase

CCOC(=O)[C@]1(c2ccccc2)N=C(c2ccccc2)N(Cc2ccccc2)[C@@H]1c1ccccc1 [TCH-013]
IC50 (HS BD): 5.01 µM
IC50 (HS PJ): 3.98 µM
IC50 (HS DH82): 10 µM
IC50 (cOS D17): 20 µM
IC50 (cOS Abrams): 15.8 µM
IC50 (cOS Gracie): 6.31 µM
IC50 (cOS Ginger): 3.16 µM
IC50 (cOS Brandie primary): 10 µM
IC50 (cOS Brandie mets): 15.8 µM
IC50 (cOS Blaz): 12.6 µM
IC50 (Normal FB1): 200 µM
IC50 (Normal FB2): 39.8 µM
IC50 (Fel SCC1): 10 µM
IC50 (Fel SCC2): 200 µM
IC50 (Fel SCC3): 50.1 µM
IC50 (hOS Saos2): 5.01 µM
IC50 (hOS U2OS): 15.8 µM
IC50 (hOS MG63): 20 µM
IC50 (Hela cells): 10 µM

CCOC(=O)[C@]1(c2ccccc2)N=C(c2ccccc2)N[C@@H]1c1ccccc1 [TCH-023, reference compound]
induction of cell death (U87-MG cells [1]; U87-MG): did not induce any cell death
LC3B-II accumulation (LC3B-II; U87-MG, structurally related control): no effect
inhibition of autophagy (LC3B immunoblot) (LC3B-II; glioblastoma cells, 10 μM, 24 h, FIG. 5C): did not inhibit autophagy

CCOC(=O)[C@]1(c2ccccc2)N=C(c2ccc(OC)cc2)N(Cc2ccccc2)[C@@H]1c1ccc(NCc2ccccc2)cc1 [TCH-165]
IC50 (HS BD): 6.31 µM
IC50 (HS PJ): 3.16 µM
IC50 (HS DH82): 2 µM
IC50 (cOS D17): 6.31 µM
IC50 (cOS Abrams): 12.6 µM
IC50 (cOS Gracie): 2 µM
IC50 (cOS Ginger): 7.94 µM
IC50 (cOS Brandie primary): 3.16 µM
IC50 (cOS Brandie mets): 3.98 µM
IC50 (cOS Blaz): 6.31 µM
IC50 (MCT C2): 100 µM
IC50 (Normal FB1): 200 µM
IC50 (Normal FB2): 20 µM
IC50 (Fel SCC1): 2 µM
IC50 (Fel SCC2): 25.1 µM
IC50 (Fel SCC3): 200 µM
IC50 (hOS Saos2): 3.16 µM
IC50 (hOS U2OS): 5.01 µM
IC50 (hOS MG63): 3.16 µM
IC50 (Hela cells): 7.94 µM
IC50 (HEK293): 2 µM
GI50 (U87-MG cells [1]; Homo sapiens, U-87 MG, U87-MG, MTS-based assay, FIG. 5B): 4.5 µM
GI50 (U87-MG cells [2]): 7 µM
LC3B-II levels versus TCH-165 alone (LC3B-II; U87-MG, TCH-165 10 μM 16 h followed by BafA1 100 nM 4 h): did not further increase
amount of LC3B-II (LC3B-II; U87-MG): significant increase
LC3B-II levels (LC3B-II; U87-MG, different concentrations, 10 μM at 0, 6, 12, 24 h (FIG. 1A, 1B)): increases LC3B-II levels
number of LC3B punctate (LC3B; 10 μM, 16 hours, FIG. 1C): significant increase
number of autophagic vacuoles (LC3B; torin1 100 nM 4 h followed by TCH-165 10 μM 16 h, FIG. 2B): significantly increased
number of lysosomes (LAMP1 staining) [3]: increased numbers of lysosomes
p62 level (p62 [4]): increase in p62
p62 punctae (p62 [5]): increase in p62 punctae
GFP and RFP fluorescence of vacuoles in RFP-GFP-LC3B cells (autolysosome formation [6]): retained both GFP and RFP positive vacuoles
Co-localization of LC3B and LAMP1 (autolysosome formation [7]): not observed
lysosensor yellow/blue dextran fluorescence of lysosomes [8]: mainly had red/blue vacuoles
effect on expression of beclin-1, ATG5 and ATG12 (beclin-1, ATG5 and ATG12): did not appear to have any significant effect
tolerance / signs of toxicity [9]: without showing any clinical or biochemical signs of toxicity

Cn1nnc2c(C(N)=O)ncn2c1=O [TMZ, temozolomide]
U87-MG cells killed (U87-MG cells [1]; 1 mM, FIG. 5D): 54%

CCN(CC)CCCC(C)Nc1ccnc2cc(Cl)ccc12 (centres unmarked) [chloroquine, reference compound]
lysosensor yellow/blue dextran fluorescence of lysosomes [8]: shifted the fluorescence to the yellow spectrum

CCC(=O)N1CCN(c2ccc(-n3c(=O)ccc4cnc5ccc(-c6cnc7ccccc7c6)cc5c43)cc2C(F)(F)F)CC1 [torin1, reference compound]
accumulation of autophagic vacuoles (LC3B; torin1 100 nM alone, FIG. 2B): modest accumulation
